Laboratory results taken from ChEMBL document CHEMBL5346925, “3,4-Dihydrobenzo[e][1,2,3]oxathiazine 2,2-dioxide analogs act as potential AMPA receptor potentiators with antidepressant activity” (Eur J Med Chem, 2023).
pEC50: −log10 of the molar value.

What was measured:
[1] = molecular target: T1, Glutamate receptor ionotropic, AMPA (Rattus norvegicus) (UniProt P19491+P19492+P19493+P19490); assay: Agonist activity at AMPA receptor in rat Primary neuron cells assessed as potentiation of s-AMPA induced calcium flux at 1 uM incubated for 1 hr by calcium 2+ influx assay relative to s-AMPA coupled TAK-137; format: cell-based
[2] = molecular target: T1, Glutamate receptor ionotropic, AMPA (Rattus norvegicus); assay: Agonist activity at AMPA receptor in rat Primary neuron cells assessed as increase in fluorescence level at 1 uM incubated for 1 hr by calcium 2+ influx assay relative to s-AMPA coupled TAK-137; format: cell-based
[3] = molecular target: Glutamate receptor ionotropic, AMPA (Rattus norvegicus, UniProt P19490+P19491+P19492+P19493); assay: Agonist activity at AMPA receptor in rat Primary neuron cells; format: cell-based
[4] = molecular target: T1, Glutamate receptor ionotropic, AMPA (Rattus norvegicus); assay: Agonist activity at AMPA receptor in rat Primary neuron cells relative to control; format: cell-based; conditions: filed as agonist
[5] = Cmax in Sprague-Dawley rat at 0.3 mg/kg, iv by LC-MS/MS analysis; format: ADME, organism-based; set-up: dose 0.3 mg/kg, route iv; conditions: in vivo
[6] = Tmax in Sprague-Dawley rat at 3 mg/kg, po by LC-MS/MS analysis; format: ADME, organism-based; conditions: in vivo
[7] = AUC (0 to infinity) in Sprague-Dawley rat at 3 mg/kg, po by LC-MS/MS analysis; format: ADME, organism-based; set-up: dose 3 mg/kg, route po; conditions: in vivo
[8] = MRT (0 to infinity) in Sprague-Dawley rat at 3 mg/kg, po by LC-MS/MS analysis; format: ADME, organism-based; conditions: in vivo
[9] = AUC (0 to t) in Sprague-Dawley rat at 3 mg/kg, po by LC-MS/MS analysis; format: ADME, organism-based; set-up: dose 3 mg/kg, route po; conditions: in vivo
[10] = Cmax in Sprague-Dawley rat at 3 mg/kg, po by LC-MS/MS analysis; format: ADME, organism-based; set-up: dose 3 mg/kg, route po; conditions: in vivo
[11] = MRT (0 to t) in Sprague-Dawley rat at 3 mg/kg, po by LC-MS/MS analysis; format: ADME, organism-based; conditions: in vivo
[12] = AUC (0 to infinity) in Sprague-Dawley rat at 0.3 mg/kg, iv by LC-MS/MS analysis; format: ADME, organism-based; set-up: dose 0.3 mg/kg, route iv; conditions: in vivo
[13] = Volume of distribution at steady state in Sprague-Dawley rat at 0.3 mg/kg, iv by LC-MS/MS analysis; format: ADME, organism-based; conditions: in vivo, read-out: Vdss
[14] = MRT (0 to infinity) in Sprague-Dawley rat at 0.3 mg/kg, iv by LC-MS/MS analysis; format: ADME, organism-based; conditions: in vivo
[15] = MRT (0 to t) in Sprague-Dawley rat at 0.3 mg/kg, iv by LC-MS/MS analysis; format: ADME, organism-based; conditions: in vivo
[16] = Clearance in Sprague-Dawley rat at 0.3 mg/kg, iv by LC-MS/MS analysis; format: ADME, organism-based; conditions: in vivo
[17] = Half life in Sprague-Dawley rat at 3 mg/kg, po by LC-MS/MS analysis; format: ADME, organism-based; conditions: in vivo
[18] = AUC (0 to t) in Sprague-Dawley rat at 0.3 mg/kg, iv by LC-MS/MS analysis; format: ADME, organism-based; set-up: dose 0.3 mg/kg, route iv; conditions: in vivo
[19] = Half life in Sprague-Dawley rat at 0.3 mg/kg, iv by LC-MS/MS analysis; format: ADME, organism-based; conditions: in vivo
[20] = Tmax in Sprague-Dawley rat at 0.3 mg/kg, iv by LC-MS/MS analysis; format: ADME, organism-based; conditions: in vivo
[21] = Oral bioavailability in Sprague-Dawley rat at 3 mg/kg by LC-MS/MS analysis; format: ADME, organism-based; conditions: in vivo

Activity ([1]; filed as agonist) [%]	Activity [2] [%]	Activity [1] [%]	Compound	also measured
55.8	5.3	–	COc1ccc(-c2ccc(-c3cccc4c3OS(=O)(=O)NC4)cc2F)cc1	–
89.3	1	–	COc1ccc(-c2cccc3c2OS(=O)(=O)NC3)cc1	pEC50 [3]: 6.26; Emax [4]: 99%
81.7	7.3	–	Cc1ccc(-c2cccc3c2OS(=O)(=O)NC3)cc1	–
66	3.5	–	Cc1ccc(-c2ccc(-c3cccc4c3OS(=O)(=O)NC4)cc2)cc1	–
82.4	-3.7	–	COc1ccc(-c2ccc(-c3cccc4c3OS(=O)(=O)NC4)cc2)cc1	pEC50 [3]: 5.91; Emax [4]: 79%
56.4	2.5	–	COc1cccc(-c2ccc(-c3cccc4c3OS(=O)(=O)NC4)cc2)c1	–
98.4	19.2	–	COc1ccc(-c2cccc3c2OS(=O)(=O)NC3)cc1F	–
107	13.2	–	CC(C)Oc1ccc(-c2cccc3c2OS(=O)(=O)NC3)cc1	–
–	-2.1	3	CC(C)Oc1ccc(-c2ccc(-c3cccc4c3OS(=O)(=O)NC4)cc2)cc1	–
77.3	4.1	–	O=S1(=O)NCc2cccc(-c3ccc(Oc4ccccc4)cc3)c2O1	Cmax [5]: 246 ng/mL; Tmax [6]: 0.5 h; AUC(0-inf) [7]: 328 ng·h/mL; MRT inf [8]: 4.56 h; pEC50 [3]: 5.79; AUC(0-t) [9]: 265 ng·h/mL; Cmax [10]: 96.1 ng/mL; MRT last [11]: 2.63 h; AUC(0-inf) [12]: 136 ng·h/mL; Vd [13]: 1.79 L/kg; MRT inf [14]: 0.81 h; MRT last [15]: 0.7 h; clearance [16]: 37.4 mL/min/kg; half-life [17]: 3.12 h; Emax [4]: 169%; AUC(0-t) [18]: 134 ng·h/mL; half-life [19]: 1.27 h; Tmax [20]: 4.8 min; bioavailability [21]: 19.8%
–	2.9	23.7	N#Cc1ccc(-c2cccc3c2OS(=O)(=O)NC3)cc1	–
48	36.5	–	O=S1(=O)NCc2cccc(-c3ccc(F)cc3)c2O1	–
83.8	2.1	–	COc1ccccc1-c1ccc(-c2cccc3c2OS(=O)(=O)NC3)cc1	pEC50 [3]: 6.42; Emax [4]: 125%
67.9	3.2	–	COc1ccc(-c2ccc(-c3cccc4c3OS(=O)(=O)NC4)c(F)c2)cc1	–
81.3	14	–	O=S1(=O)NCc2cccc(-c3ccc(C(F)(F)F)cc3)c2O1	–
72.2	1.4	–	O=S1(=O)NCc2cccc(-c3ccc(OC(F)(F)F)cc3)c2O1	–
106	29.4	–	CC(C)(C)c1ccc(-c2cccc3c2OS(=O)(=O)NC3)cc1	–

The remaining lines, values behind:

Compound	Activity ([1]; filed as agonist) [%]	Activity [2] [%]	Activity [1] [%]	also measured
O=S1(=O)NCc2cccc(-c3ccc(-c4ccc(F)c(F)c4)cc3)c2O1	–	2.5	38.7	–
O=S1(=O)NCc2cccc(-c3ccc(-c4cccc(F)c4)cc3)c2O1	72.1	3.5	–	–
O=S1(=O)NCc2cccc(-c3ccc4c(c3)OCO4)c2O1	92	17.1	–	–
COc1ccc(-c2ccc(-c3cccc4c3OS(=O)(=O)NC4C)cc2)cc1 (stereo not drawn)	50.7	2.1	–	–
COc1ccccc1-c1ccc(-c2cccc3c2OS(=O)(=O)NC3C)cc1 (stereo not drawn)	65.5	8.5	–	–
O=S1(=O)NCc2cccc(-c3cccc(Oc4ccccc4)c3)c2O1	–	1	1.9	–
O=S1(=O)NCc2cccc(-c3ccc(-c4ccc(OC(F)(F)F)cc4)cc3)c2O1	–	-1.5	-3	–
COc1cccc(-c2ccc(-c3cccc4c3OS(=O)(=O)NC4C)cc2)c1 (stereo not drawn)	58.5	4.2	–	–
COc1ccc(-c2cccc3c2OS(=O)(=O)NC3)cc1C(F)(F)F	–	1.9	0.6	–
Cc1ccc(-c2ccc(-c3cccc4c3OS(=O)(=O)NC4)cc2F)cc1	–	6.3	37.7	–
CC(C)(C)c1ccc(-c2ccc(-c3cccc4c3OS(=O)(=O)NC4)cc2)cc1	–	-2	-1.3	–
Cc1ccc(-c2ccc(-c3cccc4c3OS(=O)(=O)NC4C)cc2)cc1 (stereo not drawn)	55.3	0.1	–	–
O=S1(=O)NCc2cc(-c3ccc(Oc4ccccc4)cc3)ccc2O1	–	0.5	1.4	–
COc1ccc(-c2cccc3c2OS(=O)(=O)NC3)c(F)c1	–	8.2	10.3	–
O=S1(=O)NCc2cccc(-c3ccc(-c4ccc(C(F)(F)F)cc4)cc3)c2O1	–	0.8	0.7	–
CC1NS(=O)(=O)Oc2c(-c3ccc(-c4cccc(F)c4)cc3)cccc21 (stereo not drawn)	62.4	8.6	–	–
CC1NS(=O)(=O)Oc2c(-c3ccc(-c4ccc(F)cc4)cc3)cccc21 (stereo not drawn)	59.6	3.7	–	–
O=S1(=O)NCc2cccc(-c3ccc(-c4ccc(F)cc4)cc3)c2O1	85.3	8.1	–	–
O=S1(=O)NCc2c(cccc2-c2ccc(Oc3ccccc3)cc2)O1	–	0.8	0	–
Cc1ccc(-c2ccc(-c3cccc4c3OS(=O)(=O)NC4)c(F)c2)cc1	40.7	1.4	–	–
O=S1(=O)NCc2cccc(-c3ccc(-c4ccc(C(F)F)cc4)cc3)c2O1	–	7.2	23.9	–
O=S1(=O)NCc2cccc(-c3ccc(-c4ccccc4)cc3)c2O1	69.6	6.2	–	–
O=S1(=O)NCc2cccc(-c3ccccc3Oc3ccccc3)c2O1	–	-0.5	1	–
COc1c(C)cc(-c2cccc3c2OS(=O)(=O)NC3)cc1C	–	3.1	2.6	–
CC1NS(=O)(=O)Oc2c(-c3ccc(-c4ccccc4F)cc3)cccc21 (stereo not drawn)	69.2	10.5	–	–
O=S1(=O)NCc2cccc(-c3ccc4c(c3)OCCO4)c2O1	90.7	19.5	–	–
O=S1(=O)NCc2ccc(-c3ccc(Oc4ccccc4)cc3)cc2O1	–	0.7	-0.8	–
